Data on 10 molecules can be found in ChEMBL document CHEMBL1201862, “PubChem BioAssay data set” (2004).

Among the test systems are A498; A549; COLO 205; HCC 2998; HCT-116; HOP-62; IGROV-1; KM12; MDA-N; NCI-H460; NCI-H522; NCI/ADR-RES; OVCAR-4; PC-3; RPMI-8226; RXF 393; SK-MEL-28; SK-OV-3; SW-620; UACC-257.
Assay in all cases: inhibition of tumour cell growth, NCI panel, 48 h

The structures appear in SMILES notation.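 The compound was tested at five concentrations on cells cultured in 96-well plates, with a 48-hour exposure period. GI50 is the concentration that inhibits growth by half.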 Active and inactive are the calls of the source. No stated cut-off is given here; in the data, active = GI50 up to about 1.1 µM and inactive = higher.

With `CCCCC1=NNC(=O)C1`, the GI50 in the test on A498, in the test with A549, in the test with COLO 205, with HCC 2998, with HCT-116 and with HOP-62 was > 100 µM (inactive) in each case. For the same molecule, the GI50 in the test with IGROV-1, in the test with KM12, in the test with MDA-N, in the test on NCI-H460, in the test on NCI-H522 and with NCI/ADR-RES was > 100 µM (inactive) throughout. Also, the GI50 in the test with OVCAR-4, in the test on PC-3, with RPMI-8226, in the test with RXF 393, in the test on SK-MEL-28 and with SK-OV-3 was > 100 µM (inactive) each time. In addition, the GI50 with SW-620 and in the test with UACC-257 was > 100 µM (inactive) throughout.

With `NC(CO)C(=O)NCC(=O)O` (stereo not given), the GI50 in the test with A498, in the test with A549, in the test on COLO 205, in the test with HCC 2998, in the test with HCT-116 and with HOP-62 was > 100 µM (inactive) throughout. Further, the GI50 in the test on IGROV-1, with KM12, with MDA-N, with NCI-H460, with NCI-H522 and in the test with NCI/ADR-RES was > 100 µM (inactive) each time. Moreover, the GI50 with OVCAR-4, in the test on PC-3, in the test with RPMI-8226, in the test with RXF 393, with SK-MEL-28 and in the test on SK-OV-3 was > 100 µM (inactive) each time. For the same molecule, the GI50 in the test with SW-620 and in the test on UACC-257 was > 100 µM (inactive) each time.

In the case of `CC1C=CN(N(C)C)C2=C1C(=O)c1cnccc1C2=O` (stereo not given), the GI50 in the test with A498 is 1.29 µM (inactive); in the test with A549 it was 0.331 µM (active); in the test with COLO 205, 1.12 µM (inactive); with HCC 2998, 0.589 µM (active); in the test with HCT-116 it was 0.306 µM (active); with HOP-62, 0.349 µM (active). Besides, the GI50 in the test with IGROV-1 is 0.244 µM (active); with KM12 it was 1.24 µM (inactive); with MDA-N it was 0.133 µM (active); in the test on NCI-H460 it was 0.148 µM (active); with NCI-H522, 0.17 µM (active); with NCI/ADR-RES, 0.927 µM (active). Also, the GI50 with OVCAR-4 is 0.662 µM (active); in the test with PC-3, 1.49 µM (inactive); in the test with RPMI-8226, 0.531 µM (active); with RXF 393, 0.408 µM (active); with SK-MEL-28, 0.453 µM (active); in the test with SK-OV-3, 0.682 µM (active). Moreover, the values for the GI50 in the test with SW-620 and in the test on UACC-257 were 0.395 µM (active) and 0.212 µM (active), respectively.

As to `CN(C)/C=C/c1nnnn1-c1ccc(I)cc1`, the GI50 with A498 is 40.8 µM (inactive); in the test with A549, > 100 µM (inactive); in the test on COLO 205, > 100 µM (inactive); in the test with HCC 2998, 39.6 µM (inactive); in the test on HCT-116, 10.5 µM (inactive); in the test on HOP-62, 31.8 µM (inactive). Besides, the GI50 was 15.6 µM (inactive) with IGROV-1; 18.5 µM (inactive) in the test on KM12; 22.4 µM (inactive) with MDA-N; 31.1 µM (inactive) with NCI-H460; 25.5 µM (inactive) in the test on NCI-H522; 23.8 µM (inactive) with NCI/ADR-RES. Also, the GI50 is 20.5 µM (inactive) in the test with OVCAR-4; 16.6 µM (inactive) in the test with PC-3; 12.8 µM (inactive) in the test with RPMI-8226; 28 µM (inactive) in the test with RXF 393; 26.7 µM (inactive) with SK-MEL-28; 18.1 µM (inactive) in the test with SK-OV-3. Besides, the values for the GI50 in the test with SW-620 and in the test with UACC-257 were 15.3 µM (inactive) and 27 µM (inactive), respectively.

In the case of `COC(=O)C1CC2CC1C1C2SC(F)(F)C1(F)F` (stereo not given), the GI50 with A498, with A549, in the test with COLO 205, in the test on HCC 2998, in the test with HCT-116 and in the test with HOP-62 was > 100 µM (inactive) throughout. Besides, the GI50 with IGROV-1, in the test with KM12, with MDA-N, in the test on NCI-H460, in the test on NCI-H522 and with NCI/ADR-RES was > 100 µM (inactive) throughout. In addition, the GI50 in the test with OVCAR-4, with PC-3, in the test on RPMI-8226, with RXF 393, in the test with SK-MEL-28 and in the test on SK-OV-3 was > 100 µM (inactive) throughout. The GI50 with SW-620 and with UACC-257 was > 100 µM (inactive) each time.

As to `CCCCCC(/C=C/[C@@H]1CC(=O)C[C@H]1O[Si](C)(C)C(C)(C)C)OCOCCOC` (stereo not given in full), the GI50 was 11.9 µM (inactive) with A498; 9.55 µM (inactive) in the test with A549; 5.2 µM (inactive) in the test on COLO 205; 13.6 µM (inactive) with HCC 2998; 2.99 µM (inactive) in the test on HCT-116; 15.5 µM (inactive) in the test with HOP-62. The GI50 is 3.24 µM (inactive) in the test with IGROV-1; 3 µM (inactive) in the test on KM12; 3.41 µM (inactive) in the test on MDA-N; 17.2 µM (inactive) with NCI-H460; 1.93 µM (inactive) in the test with NCI-H522; 2.94 µM (inactive) in the test with NCI/ADR-RES. Moreover, the GI50 is 5.56 µM (inactive) with OVCAR-4; 4.16 µM (inactive) with PC-3; 2.61 µM (inactive) in the test on RPMI-8226; 2.24 µM (inactive) in the test with RXF 393; 3.08 µM (inactive) in the test on SK-MEL-28; 17 µM (inactive) in the test on SK-OV-3. Also, the GI50 in the test with SW-620 was 2.96 µM (inactive); with UACC-257, 3.68 µM (inactive).

For the molecule `CC[C@@H]1CC[C@@H]2[C@H](CC[C@]3(C)[C@@H](OC(C)=O)CC[C@@H]23)[C@H]1COC(C)=O`, the GI50 was 26 µM (inactive) in the test with A498; 22.1 µM (inactive) in the test on A549; 19.1 µM (inactive) in the test on COLO 205; 13.4 µM (inactive) with HCC 2998; 16.5 µM (inactive) with HCT-116; 30.4 µM (inactive) in the test with HOP-62. Also, the GI50 is 32.7 µM (inactive) in the test on IGROV-1; 24.3 µM (inactive) in the test with KM12; 24.9 µM (inactive) in the test on MDA-N; 19.9 µM (inactive) in the test with NCI-H460; 23.1 µM (inactive) in the test on NCI-H522; 26.7 µM (inactive) with NCI/ADR-RES. Also, the GI50 was 22.5 µM (inactive) in the test with OVCAR-4; 30.1 µM (inactive) with PC-3; 25.6 µM (inactive) with RPMI-8226; 22.6 µM (inactive) with RXF 393; 30.8 µM (inactive) in the test with SK-MEL-28; 35.2 µM (inactive) in the test with SK-OV-3. Moreover, the GI50 in the test on SW-620 was 31.8 µM (inactive); in the test on UACC-257, 29.5 µM (inactive).

In the case of `O=c1c2cccnc2[nH]c2ccc3cn[nH]c3c12`, the GI50 with A498 was > 10 µM (inactive); in the test on A549, > 10 µM (inactive); in the test on COLO 205, > 10 µM (inactive); in the test with HCC 2998 it was > 10 µM (inactive); in the test with HCT-116, 3.61 µM (inactive); in the test on HOP-62, > 10 µM (inactive). For the same molecule, the GI50 in the test on IGROV-1 is 3.33 µM (inactive); with KM12 it was 5.05 µM (inactive); in the test on MDA-N, > 10 µM (inactive); in the test with NCI-H460, 7.43 µM (inactive); with NCI-H522 it was > 10 µM (inactive); in the test on NCI/ADR-RES, > 10 µM (inactive). Further, the GI50 in the test on OVCAR-4 is > 10 µM (inactive); in the test with PC-3 it was > 10 µM (inactive); with RPMI-8226, > 10 µM (inactive); in the test on RXF 393 it was 2.15 µM (inactive); in the test on SK-MEL-28, > 10 µM (inactive); in the test on SK-OV-3 it was > 10 µM (inactive). The GI50 in the test on SW-620 and in the test on UACC-257 was > 10 µM (inactive) each time.

As to `CC(CC[C@@]1(C)C(=O)CCC2O[C@]21C)[C@H]1C[C@@H](c2ccoc2)OC1=O` (stereo not given in full), the GI50 was > 100 µM (inactive) in the test on A498; > 100 µM (inactive) with A549; 24.2 µM (inactive) with COLO 205; > 100 µM (inactive) in the test with HCC 2998; 19.5 µM (inactive) in the test with HCT-116; > 100 µM (inactive) in the test on HOP-62. Besides, the GI50 was 67.3 µM (inactive) with IGROV-1; > 100 µM (inactive) in the test on KM12; 57.1 µM (inactive) with MDA-N; > 100 µM (inactive) in the test with NCI-H460; 3.17 µM (inactive) in the test with NCI-H522; 45.6 µM (inactive) in the test on NCI/ADR-RES. The GI50 in the test with OVCAR-4 is 20.6 µM (inactive); in the test with PC-3, 62.2 µM (inactive); in the test on RPMI-8226 it was 35.5 µM (inactive); with RXF 393 it was 17.2 µM (inactive); with SK-MEL-28, 23.6 µM (inactive); in the test with SK-OV-3 it was > 100 µM (inactive). Further, the GI50 with SW-620 was 31.9 µM (inactive); in the test with UACC-257 it was > 100 µM (inactive).

As for `Nc1ccc(-c2nc3ccccc3s2)cc1`, the GI50 is 29.7 µM (inactive) with A498; 23 µM (inactive) in the test on A549; 23.8 µM (inactive) in the test on COLO 205; 59.7 µM (inactive) with HCC 2998; 18 µM (inactive) in the test with HCT-116; 36.9 µM (inactive) in the test with HOP-62. The GI50 was 18.5 µM (inactive) with IGROV-1; 21.4 µM (inactive) with KM12; 19.5 µM (inactive) in the test on MDA-N; 20.8 µM (inactive) with NCI-H460; 20.6 µM (inactive) in the test on NCI-H522; 22.6 µM (inactive) with NCI/ADR-RES. Also, the GI50 was 14.8 µM (inactive) in the test on OVCAR-4; 14.9 µM (inactive) with PC-3; 28.6 µM (inactive) in the test on RPMI-8226; 17.8 µM (inactive) with RXF 393; 17.1 µM (inactive) in the test with SK-MEL-28; 45.5 µM (inactive) in the test on SK-OV-3. The GI50 in the test on SW-620 was 20 µM (inactive); in the test on UACC-257, 22 µM (inactive).
